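These data come from cells grown in 96-well plates and exposed to compound for 48 hours at five concentrations. Abbreviation: GI50, concentration required for 50% inhibition of growth. Definition used: TGI = concentration required for complete inhibition of growth.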
Legend:
Experiment in all cases: NCI anticancer screen, dose series, 48 h
HCC-2998 colon = tested on: HCC-2998 colon
SNB-19 CNS = tested on: SNB-19 CNS
TK-10 renal = tested on: TK-10 renal
OVCAR-3 ovarian = tested on: OVCAR-3 ovarian
CCRF-CEM leukemia = tested on: CCRF-CEM leukemia
NCI-H23 lung = tested on: NCI-H23 lung
LOX IMVI melanoma = tested on: LOX IMVI melanoma
SF-539 CNS = tested on: SF-539 CNS
NCI-H460 lung = tested on: NCI-H460 lung
ACHN renal = tested on: ACHN renal

Row | Structure (SMILES) | TGI (HCC-2998 colon) [µM] | TGI (SNB-19 CNS) [µM] | TGI (TK-10 renal) [µM] | TGI (OVCAR-3 ovarian) [µM] | TGI (CCRF-CEM leukemia) [µM] | TGI (NCI-H23 lung) [µM] | TGI (LOX IMVI melanoma) [µM] | TGI (SF-539 CNS) [µM] | TGI (NCI-H460 lung) [µM] | TGI (ACHN renal) [µM] | GI50 (HCC-2998 colon) [µM] | GI50 (LOX IMVI melanoma) [µM] | GI50 (SNB-19 CNS) [µM] | GI50 (TK-10 renal) [µM] | GI50 (SF-539 CNS) [µM] | GI50 (OVCAR-3 ovarian) [µM] | GI50 (CCRF-CEM leukemia) [µM] | GI50 (NCI-H23 lung) [µM] | GI50 (ACHN renal) [µM]
1 | O=C(N/C(=C\c1ccccc1[N+](=O)[O-])c1nc2ccccc2[nH]1)c1ccccc1 | > 100 | > 100 | > 100 | > 100 | > 100 | > 100 |  |  |  |  |  |  |  |  |  |  |  |  | 
2 | CC1SC(c2ccccc2)N(Nc2c3ccccc3nc3ccccc23)C1=O (stereo not drawn) | > 100 | > 100 |  | > 100 | > 100 | > 100 | > 100 | > 100 | > 100 | > 100 |  |  |  |  |  |  |  |  | 
3 | COc1ccc(-c2cc(-c3ccccc3)n(C3OCC(OC(C)=O)C(OC(C)=O)C3OC(C)=O)c(=S)c2C#N)cc1 (stereo not drawn) | > 100 | > 100 | > 100 | > 100 | > 100 | > 100 | > 100 | > 100 | > 100 | > 100 |  |  |  |  |  |  |  |  | 
4 | COc1cc(-c2n/c(=C\c3c(O)[nH]c4ccc(Cl)cc34)cc3c2=Nc2ccccc2-3)cc(OC)c1OC | 11 | 3.84 | 3.2 | 1.53 | 37.3 | 3.85 | 1.89 | 4.91 |  | 1.65 | 2.98 | 0.501 | 1.18 | 1.5 | 2.32 | 0.417 | 0.849 | 1.05 | 0.449
5 | C=C(C)[C@@H]1CC[C@]2(C)CC[C@]3(C)[C@H](CC[C@@H]4[C@@]5(C)CC[C@H](OC(=O)c6ccccc6)C(C)(C)[C@@H]5CC[C@]43C)[C@@H]12 | > 100 | > 100 | > 100 | > 100 | > 100 | > 100 | > 100 | > 100 | > 100 | > 100 |  |  |  |  |  |  |  |  | 
6 | Nc1ccc2c(c1)C1=NNC(=O)CC1C2 (stereo not drawn) | > 100 | > 100 |  | > 31.6 | > 100 | > 100 | > 100 | > 100 | > 100 |  |  |  |  |  |  |  |  |  | 
7 | CCn1nc(C)c2c1C(=O)NC(C)C(=O)N2 (stereo not drawn) |  | > 100 | > 100 | > 100 |  | > 100 |  | > 100 | > 100 | > 100 |  |  |  |  |  |  |  |  | 
8 | COc1ccc(NS(=O)c2ccc(-c3ccccc3)cc2)cc1 (stereo not drawn) | > 100 | > 100 | > 100 | > 100 | > 100 | > 100 | > 100 | > 100 | > 100 | > 100 |  |  |  |  |  |  |  |  | 
